“And” between values parts separate entries of the source, which are not always exact repeats. Equal values may be shown once. Inconclusive results and toxic doses are left out. The calls were made as follows: active = survival T/C of 150% or more; inactive = T/C below 125% in these data.
Tested on: CD2F1 mice, L1210 leukemia ip, survival T/C
Assay: NCI In Vivo Anticancer Drug Screen. Data for tumor model L1210 Leukemia (intraperitoneal) in CD2F1 (CDF1) mice
Settings: higher = longer survival
How it was run: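 Implant tumor; dose compound or vehicle; measure endpoint in both groups; report treated divided by control.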

[1] = endpoint: mean survival time, dose: 100.0 mg/kg/injection, schedule: Q01DX009 (ip), vehicle: saline with Tween-80
[2] = endpoint: mean survival time, dose: 50.0 mg/kg/injection, schedule: Q04DX003 (ip), vehicle: saline
[3] = endpoint: mean survival time, dose: 100.0 mg/kg/injection, schedule: Q01DX001 (ip), vehicle: saline with Tween-80
[4] = endpoint: mean survival time, dose: 100.0 mg/kg/injection, schedule: Q04DX002 (ip), vehicle: saline with Tween-80
[5] = endpoint: mean survival time, dose: 100.0 mg/kg/injection, schedule: Q04DX003 (ip), vehicle: saline with Tween-80
[6] = endpoint: mean survival time, dose: 200.0 mg/kg/injection, schedule: Q01DX001 (ip), vehicle: saline with Tween-80
[7] = endpoint: mean survival time, dose: 200.0 mg/kg/injection, schedule: Q01DX009 (ip), vehicle: saline with Tween-80
[8] = endpoint: mean survival time, dose: 200.0 mg/kg/injection, schedule: Q04DX002 (ip), vehicle: saline with Tween-80
[9] = endpoint: mean survival time, dose: 200.0 mg/kg/injection, schedule: Q04DX003 (ip), vehicle: saline with Tween-80
[10] = endpoint: mean survival time, dose: 400.0 mg/kg/injection, schedule: Q01DX009 (ip), vehicle: saline with Tween-80
[11] = endpoint: mean survival time, dose: 400.0 mg/kg/injection, schedule: Q04DX002 (ip), vehicle: saline with Tween-80
[12] = endpoint: mean survival time, dose: 400.0 mg/kg/injection, schedule: Q04DX003 (ip), vehicle: saline with Tween-80

Measured: T/C

NC(=O)c1cn(C2CC(O)C(CO)O2)c2ncnc(N)c12 (stereo not drawn)
inactive: endpoint: mean survival time, dose: 0.03 mg/kg/injection, schedule: Q01DX009 (ip), vehicle: water 93 % of control | endpoint: mean survival time, dose: 0.06 mg/kg/injection, schedule: Q01DX009 (ip), vehicle: water 93 % of control | endpoint: mean survival time, dose: 0.13 mg/kg/injection, schedule: Q01DX009 (ip), vehicle: water 94 % of control | endpoint: mean survival time, dose: 0.25 mg/kg/injection, schedule: Q01DX009 (ip), vehicle: water 98 % of control | endpoint: mean survival time, dose: 0.5 mg/kg/injection, schedule: Q01DX009 (ip), vehicle: water 102 % of control | endpoint: mean survival time, dose: 1.0 mg/kg/injection, schedule: Q01DX009 (ip), vehicle: water 98 % of control | endpoint: mean survival time, dose: 2.0 mg/kg/injection, schedule: Q01DX009 (ip), vehicle: water 100 % of control | endpoint: mean survival time, dose: 4.0 mg/kg/injection, schedule: Q01DX009 (ip), vehicle: water 104 % of control | endpoint: mean survival time, dose: 5.0 mg/kg/injection, schedule: Q01DX009 (ip), vehicle: water 108 % of control | endpoint: mean survival time, dose: 8.0 mg/kg/injection, schedule: Q01DX009 (ip), vehicle: water 100 % of control | endpoint: mean survival time, dose: 10.0 mg/kg/injection, schedule: Q01DX009 (ip), vehicle: water 99 % of control | endpoint: mean survival time, dose: 16.0 mg/kg/injection, schedule: Q01DX009 (ip), vehicle: water 98 % of control | endpoint: mean survival time, dose: 20.0 mg/kg/injection, schedule: Q01DX009 (ip), vehicle: water 104 % of control | endpoint: mean survival time, dose: 40.0 mg/kg/injection, schedule: Q01DX009 (ip), vehicle: water 101 % of control | endpoint: mean survival time, dose: 80.0 mg/kg/injection, schedule: Q01DX009 (ip), vehicle: water 103 % of control | endpoint: mean survival time, dose: 160.0 mg/kg/injection, schedule: Q01DX009 (ip), vehicle: water 104 % of control

C[n+]1ccc(/C(=N\O)c2ccccc2)cc1
inactive: endpoint: mean survival time, dose: 37.5 mg/kg/injection, schedule: Q04DX003 (ip), vehicle: saline 100 % of control | endpoint: mean survival time, dose: 75.0 mg/kg/injection, schedule: Q01DX001 (ip), vehicle: saline 101 % of control | endpoint: mean survival time, dose: 75.0 mg/kg/injection, schedule: Q04DX003 (ip), vehicle: saline 100 % of control | endpoint: mean survival time, dose: 150.0 mg/kg/injection, schedule: Q01DX001 (ip), vehicle: saline 97 % of control | endpoint: mean survival time, dose: 150.0 mg/kg/injection, schedule: Q04DX003 (ip), vehicle: saline 95 % of control

CCOC(=O)CCOc1ccccc1N(CCCl)CCCl
inactive: [1] 87 % of control

CCCCCC(C)N (stereo not drawn)
inactive: endpoint: mean survival time, dose: 12.5 mg/kg/injection, schedule: Q01DX009 (ip), vehicle: saline sonified 101 % of control | endpoint: mean survival time, dose: 12.5 mg/kg/injection, schedule: Q04DX003 (ip), vehicle: saline 104 % of control | endpoint: mean survival time, dose: 25.0 mg/kg/injection, schedule: Q01DX009 (ip), vehicle: saline sonified 98 % of control | endpoint: mean survival time, dose: 25.0 mg/kg/injection, schedule: Q04DX003 (ip), vehicle: saline 103 % of control | endpoint: mean survival time, dose: 50.0 mg/kg/injection, schedule: Q01DX009 (ip), vehicle: saline sonified 107 % of control | [2] 97 % of control

CCCCCCCCCC(=O)NC(=S)Nc1ccc(C(=O)OCCCC)cc1
inactive: [3] 88 % of control | [1] 103 % of control | [4] 94 % of control and 103 % of control | [5] 90 % of control | [6] 86 % of control | [7] 92 % of control and 98 % of control | [8] 90 % of control and 100 % of control | [9] 93 % of control | [10] 89 % of control and 92 % of control | [11] 90 % of control and 91 % of control | [12] 93 % of control

CCc1ncc(C(C)(O)c2ccccc2)n1Cc1ccccc1 (stereo not drawn)
inactive: [1] 95 % of control | [7] 90 % of control | [10] 94 % of control

COC(=O)C1(C)CCCC2(C)C1CCC1(O)C(O)C(C(C)C)=CCC21 (stereo not drawn)
inactive: [5] 92 % of control | [9] 93 % of control | [12] 92 % of control

CO[C@H](/C(C)=C/C=C/C(C)=C/c1coc(C)n1)[C@H](C)[C@H]1C[C@@H](O)[C@@]2(C)O[C@H]2/C=C/[C@@H](C)[C@@H]2C[C@@H](CC(=O)O2)C[C@H]2O[C@@H]2C(=O)O1
inactive: endpoint: median survival time, dose: 0.5 mg/kg/injection, schedule: Q01DX009 (ip), vehicle: Klucel (hydroxypropylcellulose) (HPC) 112 % of control | endpoint: median survival time, dose: 20.0 micrograms/kg/injection, schedule: Q01DX009 (ip), vehicle: Klucel (hydroxypropylcellulose) (HPC) 114 % of control | endpoint: median survival time, dose: 40.0 micrograms/kg/injection, schedule: Q01DX009 (ip), vehicle: Klucel (hydroxypropylcellulose) (HPC) 123 % of control and 104 % of control | endpoint: median survival time, dose: 80.0 micrograms/kg/injection, schedule: Q01DX009 (ip), vehicle: Klucel (hydroxypropylcellulose) (HPC) 116 % of control | endpoint: median survival time, dose: 160.0 micrograms/kg/injection, schedule: Q01DX009 (ip), vehicle: Klucel (hydroxypropylcellulose) (HPC) 114 % of control

COc1cc([N+](=O)[O-])ccc1P(=O)(O)O
inactive: [2] 101 % of control | endpoint: mean survival time, dose: 100.0 mg/kg/injection, schedule: Q04DX003 (ip), vehicle: saline 97 % of control | endpoint: mean survival time, dose: 200.0 mg/kg/injection, schedule: Q04DX003 (ip), vehicle: saline 91 % of control

Nc1nc(=O)n(CCCOc2ccc(Cl)cc2)cc1-c1ccccc1
inactive: [3] 98 % of control | [6] 101 % of control | endpoint: mean survival time, dose: 400.0 mg/kg/injection, schedule: Q01DX001 (ip), vehicle: saline with Tween-80 88 % of control

Clc1ccc2ccccc2c1C(Cl)Cl
inactive: endpoint: mean survival time, dose: 25.0 mg/kg/injection, schedule: Q01DX009 (ip), vehicle: saline with Tween-80 96 % of control | endpoint: mean survival time, dose: 50.0 mg/kg/injection, schedule: Q01DX009 (ip), vehicle: saline with Tween-80 95 % of control | [1] 98 % of control | [5] 91 % of control | [7] 102 % of control | [9] 98 % of control | [10] 102 % of control | [12] 93 % of control

OC1CCC2=C(C1)C1CCC2C1 (stereo not drawn)
inactive: endpoint: mean survival time, dose: 12.5 mg/kg/injection, schedule: Q01DX009 (ip), vehicle: saline 98 % of control | endpoint: mean survival time, dose: 25.0 mg/kg/injection, schedule: Q01DX009 (ip), vehicle: saline 103 % of control | endpoint: mean survival time, dose: 50.0 mg/kg/injection, schedule: Q01DX009 (ip), vehicle: saline 97 % of control

CCOC(=O)C(=O)c1c[nH]c2ccccc12
inactive: endpoint: mean survival time, dose: 100.0 mg/kg/injection, schedule: Q01DX009 (ip), vehicle: saline sonified 89 % of control | endpoint: mean survival time, dose: 200.0 mg/kg/injection, schedule: Q01DX009 (ip), vehicle: saline sonified 95 % of control | endpoint: mean survival time, dose: 400.0 mg/kg/injection, schedule: Q01DX009 (ip), vehicle: saline sonified 94 % of control

CC(=O)OC/C=C(C)/C=C/C=C(C)/C=C/C1=C(C)CCCC1(C)C
inactive: endpoint: mean survival time, dose: 200.0 mg/kg/injection, schedule: Q01DX001 (ip), vehicle: steriod suspending solution 96 % of control | endpoint: mean survival time, dose: 200.0 mg/kg/injection, schedule: Q01DX009 (ip), vehicle: steriod suspending solution 96 % of control | endpoint: mean survival time, dose: 400.0 mg/kg/injection, schedule: Q01DX001 (ip), vehicle: steriod suspending solution 102 % of control | endpoint: mean survival time, dose: 400.0 mg/kg/injection, schedule: Q01DX009 (ip), vehicle: steriod suspending solution 93 % of control | endpoint: mean survival time, dose: 800.0 mg/kg/injection, schedule: Q01DX001 (ip), vehicle: steriod suspending solution 92 % of control | endpoint: mean survival time, dose: 800.0 mg/kg/injection, schedule: Q01DX009 (ip), vehicle: steriod suspending solution 86 % of control | endpoint: mean survival time, dose: 1600.0 mg/kg/injection, schedule: Q01DX001 (ip), vehicle: steriod suspending solution 92 % of control

COc1c(C)c2c(c(O)c1C/C=N\O)C(=O)OC2
inactive: [4] 100 % of control | [8] 100 % of control | [11] 100 % of control

CCN1CCS(=O)(=O)C1=O
inactive: endpoint: mean survival time, dose: 75.0 mg/kg/injection, schedule: Q01DX001 (ip), vehicle: other 108 % of control | endpoint: mean survival time, dose: 150.0 mg/kg/injection, schedule: Q01DX001 (ip), vehicle: other 115 % of control

C(#Cc1ccccc1)c1ccccc1.Cc1ccc([PH+](c2ccccc2)c2ccccc2)cc1.Cc1ccc([PH+](c2ccccc2)c2ccccc2)cc1.[Pt]
inactive: endpoint: median survival time, dose: 3.13 mg/kg/injection, schedule: Q04DX003 (ip), vehicle: distilled water + Tween-80 100 % of control | endpoint: median survival time, dose: 6.25 mg/kg/injection, schedule: Q04DX003 (ip), vehicle: distilled water + Tween-80 101 % of control | endpoint: median survival time, dose: 12.5 mg/kg/injection, schedule: Q04DX003 (ip), vehicle: distilled water + Tween-80 105 % of control | endpoint: median survival time, dose: 25.0 mg/kg/injection, schedule: Q04DX003 (ip), vehicle: distilled water + Tween-80 89 % of control | endpoint: median survival time, dose: 50.0 mg/kg/injection, schedule: Q04DX003 (ip), vehicle: distilled water + Tween-80 90 % of control | endpoint: median survival time, dose: 100.0 mg/kg/injection, schedule: Q04DX003 (ip), vehicle: distilled water + Tween-80 94 % of control
